# Experimental data taken from article PMC5844530, “Fosmetpantotenate (RE-024), a phosphopantothenate replacement therapy for pantothenate kinase-associated neurodegeneration: Mechanism of action and efficacy in nonclinical models” (PLoS ONE, 2018).
# Values joined by “and” are separate entries in the source; they are usually repeats but may differ in a detail not shown here. Equal values may be shown once.
# What was measured:
# [1] = Pharmacokinetics in whole blood, CD-1 mice; settings: blood; for concentration at 0.083 h / concentration at 0.167 h / concentration at 0.333 h / concentration at 0.5 h / concentration at 1 h / concentration at 2 h / concentration at 0.033 h / concentration at 4 h: male, CD-1, mouse, in vivo
# [2] = Pharmacokinetics in whole blood, Sprague-Dawley rats; settings: male Sprague-Dawley rats, blood, BQL <1.26 nM
# Method: The whole blood samples (0.5 mL) were collected into syringes that were prefilled with 2.5 mL of ice-cold 0.1% formic acid in acetonitrile. The volume ratio of the whole blood to 0.1% formic acid in acetonitrile was 1/5 (v/v). Samples were frozen (-70°C) until analyzed by LC-MS/MS.
# Standard curves and quality control (QC) samples were prepared fresh on the day of analysis by serial dilution of the standard mixture in quenched whole blood (1 part of blood to 5 parts of 0.1% formic acid in acetonitrile) and centrifuged. […] The frozen study samples were thawed in an ice/water bath and centrifuged. Supernatant (50 μL) from standards, QC samples, and study samples was transferred to a 96-well plate and dried completely under nitrogen. The dried residues were reconstituted with 100 μL of 0.1% formic acid in water containing internal standard (5 ng/mL of ^15N/^13C3-RE-024-02) and analyzed by LC-MS/MS.
# LC-MS/MS analysis for blood pharmacokinetic samples: Samples were analyzed using an Agilent 1100 binary pump (Agilent Technologies, Santa Clara, CA, USA), connected to an AB Sciex API 6500 mass spectrometer (SCIEX, Framingham, MA, USA). An electrospray ionization source was used, scanning in the positive mode. […] The chromatography column was a Varian Metasil AQ 120–5 C18 column, 5 μm, 50 x 2.00 mm (Part No. A0530050X020) at ambient temperature, with a 0.5 mL/min flow rate and a 20 μL injection volume. Mobile phase (A) consisted of 0.1% formic acid in water; while mobile phase (B) consisted of 0.1% formic acid in acetonitrile:water (9:1, v/v).
# Quantitation of in vivo samples: Peak areas were integrated using Analyst software (AB Sciex, Concord, Ontario, Canada). […] Calibration standards (at a minimum 7 per curve) were fit by linear regression with (1/x^2) weighting. QC samples were used (triplicate) at 3 concentrations for all tandem mass spectrometry (MS/MS) runs.
# Pharmacokinetic calculations: PK analysis was performed using Phoenix WinNonlin®, Build 6.3.0.395 (Certara, Princeton, NJ, USA) using a non-compartmental model (PO dose = model 200 for extravascular dosing). […] Post-dose concentrations below the limit of quantitation (BLQ) were omitted from calculation.
# [3] = 100 mg/kg, Conc., fosmetpantotenate 100 mg/kg PO, individual animals
# [4] = 100 mg/kg, Mean Conc., fosmetpantotenate 100 mg/kg PO
# [5] = 300 mg/kg, Conc., fosmetpantotenate 300 mg/kg PO, individual animals
# [6] = 300 mg/kg, Mean Conc., fosmetpantotenate 300 mg/kg PO
# [7] = 700 mg/kg, Fosmetpantotenate Mean Conc., male CD-1 mice, fosmetpantotenate 700 mg/kg oral, mean, BQL <1.02 nM
smiles,measurement,setting,value
COC(=O)CCNC(=O)[C@H](O)C(C)(C)COP(=O)(N[C@@H](C)C(=O)OC)Oc1ccccc1 (mixture of isomers) [Fosmetpantotenate],Fosmetpantotenate Conc.,"[1]; male CD-1 mice, fosmetpantotenate 700 mg/kg oral, 4 hr, individual animals, BQL <1.02 nM",BQL
same,Fosmetpantotenate Conc.,"[1]; male CD-1 mice, fosmetpantotenate 700 mg/kg oral, 8 hr, individual animals, BQL <1.02 nM",BQL
same,Fosmetpantotenate Mean Conc.,"[1]; male CD-1 mice, fosmetpantotenate 700 mg/kg oral, 8 hr, mean, BQL <1.02 nM",BQL
same,concentration at 0.083 h,[1]; [3],2 nM
same,concentration at 0.167 h,[1]; [3],1.31 nM
same,concentration at 0.333 h,[1]; [3],1.31 nM
same,concentration at 0.5 h,[1]; [3],1.35 nM
same,concentration at 1 h,[1]; [3],1.26 nM
same,concentration at 2 h,[1]; [3],2.97 nM
same,concentration at 0.033 h,[1]; [4],7.81 nM
same,concentration at 0.083 h,[1]; [4],1.97 nM
same,concentration at 0.167 h,[1]; [4],1.8 nM
same,concentration at 0.333 h,[1]; [4],1.74 nM
same,concentration at 0.5 h,[1]; [4],1.39 nM
same,concentration at 1 h,[1]; [4],1.52 nM
same,concentration at 2 h,[1]; [4],2.97 nM
same,concentration at 0.333 h,[1]; [5],1.43 nM
same,concentration at 0.5 h,[1]; [5],1.83 nM
same,concentration at 1 h,[1]; [5],1.14 nM
same,concentration at 4 h,"[1]; 300 mg/kg, Conc., fosmetpantotenate 300 mg/kg PO, 4 hr, individual animals",1.03 nM
same,concentration at 0.033 h,[1]; [6],30.2 nM
same,concentration at 0.083 h,[1]; [6],14.4 nM
same,concentration at 0.167 h,[1]; [6],2.3 nM
same,concentration at 0.333 h,[1]; [6],1.22 nM
same,concentration at 0.5 h,[1]; [6],1.36 nM
same,concentration at 1 h,[1]; [6],1.14 nM
same,concentration at 4 h,"[1]; 300 mg/kg, Mean Conc., fosmetpantotenate 300 mg/kg PO, 4 hr",1.03 nM
same,concentration at 0.333 h,"[1]; 700 mg/kg, Fosmetpantotenate Conc., male CD-1 mice, fosmetpantotenate 700 mg/kg oral, individual animals, BQL <1.02 nM",24.4 nM
same,concentration at 4 h,"[1]; 700 mg/kg, Fosmetpantotenate Conc., male CD-1 mice, fosmetpantotenate 700 mg/kg oral, 4 hr, individual animals, BQL <1.02 nM",1.14 nM
same,concentration at 0.033 h,[1]; [7],135 nM
same,concentration at 0.083 h,[1]; [7],16.2 nM
same,concentration at 0.167 h,[1]; [7],307 nM
same,concentration at 0.333 h,[1]; [7],23.6 nM
same,concentration at 0.5 h,[1]; [7],78.7 nM
same,concentration at 1 h,[1]; [7],51.6 nM
same,concentration at 2 h,[1]; [7],5.11 nM
same,concentration at 4 h,"[1]; 700 mg/kg, Fosmetpantotenate Mean Conc., male CD-1 mice, fosmetpantotenate 700 mg/kg oral, 4 hr, mean, BQL <1.02 nM",1.14 nM
same,Fosmetpantotenate Conc.,"[2]; fosmetpantotenate 100 mg/kg oral, 0.033 hr, individual animals",BQL
same,Fosmetpantotenate Mean Conc.,"[2]; fosmetpantotenate 100 mg/kg oral, 0.033 hr, mean",BQL
same,Fosmetpantotenate Conc.,"[2]; fosmetpantotenate 100 mg/kg oral, 0.083 hr, individual animals",BQL
same,Fosmetpantotenate Mean Conc.,"[2]; fosmetpantotenate 100 mg/kg oral, 0.083 hr, mean",BQL
same,Fosmetpantotenate Conc.,"[2]; fosmetpantotenate 100 mg/kg oral, 0.167 hr, individual animals",BQL
same,Fosmetpantotenate Mean Conc.,"[2]; fosmetpantotenate 100 mg/kg oral, 0.167 hr, mean",BQL
same,Fosmetpantotenate Conc.,"[2]; fosmetpantotenate 100 mg/kg oral, 0.33 hr, individual animals",BQL
same,Fosmetpantotenate Mean Conc.,"[2]; fosmetpantotenate 100 mg/kg oral, 0.33 hr, mean",BQL
same,Fosmetpantotenate Conc.,"[2]; fosmetpantotenate 100 mg/kg oral, 0.5 hr, individual animals",BQL
same,Fosmetpantotenate Conc.,"[2]; fosmetpantotenate 100 mg/kg oral, 1 hr, individual animals",BQL
same,Fosmetpantotenate Mean Conc.,"[2]; fosmetpantotenate 100 mg/kg oral, 1 hr, mean",BQL
same,Fosmetpantotenate Conc.,"[2]; fosmetpantotenate 100 mg/kg oral, 2 hr, individual animals",BQL
same,Fosmetpantotenate Mean Conc.,"[2]; fosmetpantotenate 100 mg/kg oral, 2 hr, mean",BQL
same,Fosmetpantotenate Conc.,"[2]; fosmetpantotenate 100 mg/kg oral, 4 hr, individual animals",BQL
same,Fosmetpantotenate Conc.,"[2]; fosmetpantotenate 100 mg/kg oral, 8 hr, individual animals",BQL
same,Fosmetpantotenate Mean Conc.,"[2]; fosmetpantotenate 100 mg/kg oral, 8 hr, mean",BQL
same,Fosmetpantotenate Conc.,"[2]; fosmetpantotenate 300 mg/kg oral, 0.033 hr, individual animals",4.15 nM and BQL
same,Fosmetpantotenate Conc.,"[2]; fosmetpantotenate 300 mg/kg oral, 0.083 hr, individual animals",BQL
same,Fosmetpantotenate Mean Conc.,"[2]; fosmetpantotenate 300 mg/kg oral, 0.083 hr, mean",BQL
same,Fosmetpantotenate Conc.,"[2]; fosmetpantotenate 300 mg/kg oral, 0.167 hr, individual animals",8.83 nM and 22.89 nM and 22.51 nM
same,Fosmetpantotenate Conc.,"[2]; fosmetpantotenate 300 mg/kg oral, 0.33 hr, individual animals",BQL and 64.88 nM and 7.67 nM
same,Fosmetpantotenate Conc.,"[2]; fosmetpantotenate 300 mg/kg oral, 0.5 hr, individual animals",2.28 nM and BQL and 577.94 nM
same,Fosmetpantotenate Conc.,"[2]; fosmetpantotenate 300 mg/kg oral, 1 hr, individual animals",BQL
same,Fosmetpantotenate Conc.,"[2]; fosmetpantotenate 300 mg/kg oral, 2 hr, individual animals",BQL
same,Fosmetpantotenate Conc.,"[2]; fosmetpantotenate 300 mg/kg oral, 4 hr, individual animals",BQL
same,Fosmetpantotenate Conc.,"[2]; fosmetpantotenate 300 mg/kg oral, 8 hr, individual animals",BQL
same,Fosmetpantotenate Mean Conc.,"[2]; fosmetpantotenate 300 mg/kg oral, 8 hr, mean",BQL
same,Fosmetpantotenate Conc.,"[2]; fosmetpantotenate 700 mg/kg oral, 0.033 hr, individual animals",2149.90(a) nM and BQL and 114.07 nM
same,Fosmetpantotenate Conc.,"[2]; fosmetpantotenate 700 mg/kg oral, 0.083 hr, individual animals",518.51 nM and BQL and 1.62 nM
same,Fosmetpantotenate Conc.,"[2]; fosmetpantotenate 700 mg/kg oral, 0.167 hr, individual animals",28.96 nM and 23269.54(a) nM and 247.87 nM
same,Fosmetpantotenate Conc.,"[2]; fosmetpantotenate 700 mg/kg oral, 0.33 hr, individual animals",2541.94 nM and 1277.3 nM and 54 nM
same,Fosmetpantotenate Conc.,"[2]; fosmetpantotenate 700 mg/kg oral, 0.5 hr, individual animals",509.65 nM and 72.84 nM and 84.61 nM
same,Fosmetpantotenate Conc.,"[2]; fosmetpantotenate 700 mg/kg oral, 1 hr, individual animals",73.35 nM and 63.86 nM and 214.99 nM
same,Fosmetpantotenate Conc.,"[2]; fosmetpantotenate 700 mg/kg oral, 2 hr, individual animals",BQL and 1035.75 nM
same,Fosmetpantotenate Conc.,"[2]; fosmetpantotenate 700 mg/kg oral, 4 hr, individual animals",419.86 nM and BQL and 32.12 nM
same,Fosmetpantotenate Conc.,"[2]; fosmetpantotenate 700 mg/kg oral, 8 hr, individual animals",BQL
same,Fosmetpantotenate Mean Conc.,"[2]; fosmetpantotenate 700 mg/kg oral, 8 hr, mean",BQL
same,concentration at 0.5 h,"[2]; male, Sprague-Dawley, rat, in vivo, 100 mg/kg, Fosmetpantotenate Conc., fosmetpantotenate 100 mg/kg oral, 0.5 hr, individual animals",3.31 nM
same,concentration at 4 h,"[2]; male, Sprague-Dawley, rat, in vivo, 100 mg/kg, Fosmetpantotenate Conc., fosmetpantotenate 100 mg/kg oral, 4 hr, individual animals",2.04 nM
same,concentration at 0.5 h,"[2]; male, Sprague-Dawley, rat, in vivo, 100 mg/kg, Fosmetpantotenate Mean Conc., fosmetpantotenate 100 mg/kg oral, 0.5 hr, mean",3.31 nM
same,concentration at 4 h,"[2]; male, Sprague-Dawley, rat, in vivo, 100 mg/kg, Fosmetpantotenate Mean Conc., fosmetpantotenate 100 mg/kg oral, 4 hr, mean",2.04 nM
same,concentration at 0.033 h,"[2]; male, Sprague-Dawley, rat, in vivo, 300 mg/kg, Fosmetpantotenate Conc., fosmetpantotenate 300 mg/kg oral, 0.033 hr, individual animals",3.9 nM
same,concentration at 1 h,"[2]; male, Sprague-Dawley, rat, in vivo, 300 mg/kg, Fosmetpantotenate Conc., fosmetpantotenate 300 mg/kg oral, 1 hr, individual animals",6.98 nM
same,concentration at 2 h,"[2]; male, Sprague-Dawley, rat, in vivo, 300 mg/kg, Fosmetpantotenate Conc., fosmetpantotenate 300 mg/kg oral, 2 hr, individual animals",3.41 nM
same,concentration at 4 h,"[2]; male, Sprague-Dawley, rat, in vivo, 300 mg/kg, Fosmetpantotenate Conc., fosmetpantotenate 300 mg/kg oral, 4 hr, individual animals",3.69 nM
same,concentration at 0.033 h,"[2]; male, Sprague-Dawley, rat, in vivo, 300 mg/kg, Fosmetpantotenate Mean Conc., fosmetpantotenate 300 mg/kg oral, 0.033 hr, mean",4.03 nM
same,concentration at 0.167 h,"[2]; male, Sprague-Dawley, rat, in vivo, 300 mg/kg, Fosmetpantotenate Mean Conc., fosmetpantotenate 300 mg/kg oral, 0.167 hr, mean",18.1 nM
same,concentration at 0.33 h,"[2]; male, Sprague-Dawley, rat, in vivo, 300 mg/kg, Fosmetpantotenate Mean Conc., fosmetpantotenate 300 mg/kg oral, 0.33 hr, mean",36.3 nM
same,concentration at 0.5 h,"[2]; male, Sprague-Dawley, rat, in vivo, 300 mg/kg, Fosmetpantotenate Mean Conc., fosmetpantotenate 300 mg/kg oral, 0.5 hr, mean",290 nM
same,concentration at 1 h,"[2]; male, Sprague-Dawley, rat, in vivo, 300 mg/kg, Fosmetpantotenate Mean Conc., fosmetpantotenate 300 mg/kg oral, 1 hr, mean",6.98 nM
same,concentration at 2 h,"[2]; male, Sprague-Dawley, rat, in vivo, 300 mg/kg, Fosmetpantotenate Mean Conc., fosmetpantotenate 300 mg/kg oral, 2 hr, mean",3.41 nM
same,concentration at 4 h,"[2]; male, Sprague-Dawley, rat, in vivo, 300 mg/kg, Fosmetpantotenate Mean Conc., fosmetpantotenate 300 mg/kg oral, 4 hr, mean",3.69 nM
same,concentration at 2 hr,"[2]; male, Sprague-Dawley, rat, in vivo, 700 mg/kg, Fosmetpantotenate Conc., fosmetpantotenate 700 mg/kg oral, 2 hr, individual animals",663 nM
same,concentration at 0.033 h,"[2]; male, Sprague-Dawley, rat, in vivo, 700 mg/kg, Fosmetpantotenate Mean Conc., fosmetpantotenate 700 mg/kg oral, 0.033 hr, mean",114 nM
same,concentration at 0.083 h,"[2]; male, Sprague-Dawley, rat, in vivo, 700 mg/kg, Fosmetpantotenate Mean Conc., fosmetpantotenate 700 mg/kg oral, 0.083 hr, mean",260 nM
same,concentration at 0.167 hr,"[2]; male, Sprague-Dawley, rat, in vivo, 700 mg/kg, Fosmetpantotenate Mean Conc., fosmetpantotenate 700 mg/kg oral, 0.167 hr, mean",138 nM
same,concentration at 0.33 hr,"[2]; male, Sprague-Dawley, rat, in vivo, 700 mg/kg, Fosmetpantotenate Mean Conc., fosmetpantotenate 700 mg/kg oral, 0.33 hr, mean",1290 nM
same,concentration at 0.5 hr,"[2]; male, Sprague-Dawley, rat, in vivo, 700 mg/kg, Fosmetpantotenate Mean Conc., fosmetpantotenate 700 mg/kg oral, 0.5 hr, mean",222 nM
same,concentration at 1 hr,"[2]; male, Sprague-Dawley, rat, in vivo, 700 mg/kg, Fosmetpantotenate Mean Conc., fosmetpantotenate 700 mg/kg oral, 1 hr, mean",117 nM
same,concentration at 2 hr,"[2]; male, Sprague-Dawley, rat, in vivo, 700 mg/kg, Fosmetpantotenate Mean Conc., fosmetpantotenate 700 mg/kg oral, 2 hr, mean",849 nM
same,concentration at 4 h,"[2]; male, Sprague-Dawley, rat, in vivo, 700 mg/kg, Fosmetpantotenate Mean Conc., fosmetpantotenate 700 mg/kg oral, 4 hr, mean",226 nM
